Assay [1] relates to THRSPA mRNA, primary chicken hepatocytes. Briefly: THRSPA mRNA in primary chicken hepatocytes, RT-qPCR. The format is cell-based. Particulars: 6 h, N = 4, Figures 8D-F. As for the experimental part: (§1) To evaluate the effect of ACTH1-39 on chicken liver, the chicken hepatocytes were prepared and maintained as a monolayer culture. Briefly, one-month-old male chicken hepatocytes were isolated by perfusion of a liver with Ca^2+-free KRB buffer to remove blood cells, and being digested with 0.25% collagenase-I for 10 min. Hepatocytes were obtained following filtering and washing using M199 medium. Then the hepatocytes were plated in a Corning CellBIND 48-well microplate (Corning, NY, cat. no.3338) with M199 medium containing 100 U/ml penicillin and […] streptomycin (Gibco), 5 μg/ml bovine insulin (Sigma), and 5% FBS at 37°C in a 5% CO2 atmosphere. To adhere to the wall, the cells were incubated on the 48-well plate for 4 h.
(§2) For quantitative real-time PCR, primary cultured chicken hepatocytes were treated with various concentrations of ACTH1-39 (or other composition) at 37°C for 6 h. The relative amount of mRNA was calculated using the comparative Ct method. Chicken β-actin gene was used as the reference gene. Amplification of specific transcripts was confirmed by analyzing the melting curve profile performed at the end of each run and by determining the size of the PCR products using agarose electrophoresis and ethidium bromide staining.

For assay [2], the system named is ELOVL6 mRNA, primary chicken hepatocytes. Briefly: ELOVL6 mRNA in primary chicken hepatocytes, RT-qPCR. Particulars: 6 h, N = 4, Figures 8A-C. The format is cell-based. On the procedure:
as §1, §2
In general terms: In qPCR the cycle at which signal appears reflects the starting amount.

Assay [3] deals with MC5R mRNA, primary chicken hepatocytes. In words: MC5R mRNA in primary chicken hepatocytes, RT-qPCR. It is filed as cell-based. Particulars: primary chicken hepatocytes, 6 h, N = 4, vs β-actin, Figures 6C-E. On the procedure: as §1, with “h. For quantitative real-time PCR, primary cultured chicken hepatocytes were treated with various concentrations of ACTH1-39 (or other composition) at 37°C for 6 h. The relative amount of mRNA was calculated using the comparative Ct method. Chicken β-actin gene was used as the reference gene. Amplification of specific transcripts was confirmed by analyzing the melting curve profile performed at the end of each run and by determining the size of the PCR products using agarose electrophoresis and ethidium bromide staining.” for “h.”

For assay [4], the system named is AC/cAMP/PKA signaling (cMC5R). In words: Inhibition of ACTH- or α-MSH-stimulated luciferase activity in CHO cells expressing cMC5R. It is filed as cell-based, chicken. Conditions: for inhibition of ACTH-stimulated luciferase activity: inhibitor (H89 10 μM, MDL 5 μM) added 0.5 h before ACTH (10 nM, 6 h), Figure 2E; for inhibition of α-MSH-stimulated luciferase activity: inhibitor (H89 10 μM, MDL 5 μM) added 0.5 h before α-MSH (10 nM, 6 h), Figure 2F. As for the experimental part:
(§3) In brief, CHO cells were cultured on a six-well plate (Nunc, Roskilde, Denmark) and grown for 24 h before transfection. The cells were then transfected with a mixture containing 700 ng pGL3-CRE-Luciferase reporter construct, 200 ng of receptor expression plasmid (or empty pcDNA3.1 vector as a negative control), 20 ng of pRL-TK construct (containing a Renilla luciferase gene, used as an internal control), and 2 μl jetPRIME transfection reagent (Polyplus Transfection, Illkirch, France) in 200 μL buffer. Twenty-four hours later, CHO cells were sub-cultured into a 96-well plate at 37°C for an additional 24 h before treatment. After removal of the medium from the 96-well plate, the cells were treated with 100 μl ligand-containing medium (or ligand-free medium) for 6 h. Finally, CHO cells were lysed with 1 × passive lysis buffer for luciferase assay (Promega) and the luciferase activity of the cell lysate was measured by a Multimode Microplate Reader (TriStar LB941, EG&G Berthold, Germany) according to the manufacturer’s instruction.
To test whether cMRAP1 and cMRAP2 can alter the pharmacological properties of cMC5R, CHO cells co-expressing MC5R and cMRAP1/cMRAP2 were treated with chicken ACTH1–39/α-MSH, and the relative potential of these two peptides to activate the receptor was also determined using the pGL3-CRE-luciferase reporter system. At the same time, H89 (a PKA inhibitor, 10 μM) and MDL12330 A (an AC inhibitor, 5 μM) were used to further determine the signal pathways activated by ACTH1-39/α-MSH.

For assay [5], the target named is T1, chicken MC5R (Gallus gallus, UniProt O73671). Briefly: pGL3-CRE-luciferase reporter assay, CHO cells expressing chicken MC5R. It is filed as cell-based. Particulars: for ability to activate / sensitivity of cMC5R (in words, ranking): CHO cells expressing cMC5R; for EC50: Figure 2B, CHO cells transiently expressing cMC5R, 10^−12–10^−6 M, 6 h, mean ± SEM of three replicates (N = 3), representative of three independent experiments, read-out: EC50 (activation of cMC5R).
T1 sequence (O73671 1-325): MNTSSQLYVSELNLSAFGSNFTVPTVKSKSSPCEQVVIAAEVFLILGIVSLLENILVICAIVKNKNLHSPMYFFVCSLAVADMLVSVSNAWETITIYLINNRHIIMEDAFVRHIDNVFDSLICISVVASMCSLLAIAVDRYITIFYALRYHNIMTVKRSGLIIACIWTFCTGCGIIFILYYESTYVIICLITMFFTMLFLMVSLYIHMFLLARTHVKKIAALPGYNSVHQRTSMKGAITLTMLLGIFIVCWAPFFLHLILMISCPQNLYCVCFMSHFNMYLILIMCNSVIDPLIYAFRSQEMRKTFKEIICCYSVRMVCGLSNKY
Text: All chemicals were purchased from Sigma-Aldrich (St. Louis, MO, United States) and the restriction enzymes were obtained from TaKaRa (Dalian, China). […] All primers used in this study were synthesized by Beijing Genome Institute (BGI, China) and listed in Supplementary Table 1.
The expression plasmids encoding MC5R, MRAP1 and MRAP2 were established by cloning their entire open reading frame (ORF) into the pcDNA3.1 (+) expression vector (Invitrogen).
as §3, with “The” for “In brief, CHO cells were cultured on a six-well plate (Nunc, Roskilde, Denmark) and grown for 24 h before transfection. The”, “Twenty-four hours later, CHO cells were sub-cultured into a 96-well plate at 37°C for an additional 24 h before treatment.” left out
All statistical analysis was performed using GraphPad Prism 9 (Graph Pad Software Inc., San Diego, CA). The dose-response curves were constructed using nonlinear regression models. Student’s test was used to compare two groups, for more than two groups one-way ANOVA was performed followed by Dunnett’s test. To validate our results, all in-vitro experiments were repeated three times, and representative data are reported.

In a further assay the test system is hMC5R + MRAP2. Particulars: in vitro; ref Chan et al., 2009; cited from earlier work. The text has this:
Our results were consistent with previous results. […] In zebrafish, MRAP2a decreased the surface expression and efficacy of MC5Ra/MC5Rb, but not MRAP2b, in the same manner as mouse MRAP2 did ([Zhu et al., 2019]). In ricefield eel (Monopterus albus), two isoforms of MRAP2 (maMRAP2X1 and maMRAP2X2) significa ...

The next assay has as its system chicken MC5R D204A. Conditions: ref Min et al., 2019; cited from earlier work.
Another assay relates to chicken MC5R D119A. Particulars: ref Min et al., 2019; cited from earlier work.
Another assay deals with chicken MC5R F254A. Conditions: ref Min et al., 2019; cited from earlier work.
Assay [6] has as its target T1, chicken MC5R. Details: method as in 3 sources, ref Ling et al., 2004 ||| ref Dores et al., 2020 ||| ref Schioth et al., 1997; Ling et al., 2004. Conditions: ref Schioth et al., 1997; Ling et al., 2004; cited from earlier work.
Another assay concerns human MC5R. Conditions: ref Schioth et al., 1997; Ling et al., 2004; cited from earlier work. The text has this:
The luciferase reporter system was then employed to investigate the signal pathway of MC5R coupling. […] Human peptides have previously been ...

Here are results for nine compounds from article PMC9583845, “Characterization of the chicken melanocortin 5 receptor and its potential role in regulating hepatic glucolipid metabolism” (Frontiers in Physiology, 2022).

“Also recorded” adds a separate entry of the source.

Take `Nc1ncnc2c1nc(Br)n2[C@@H]1O[C@@H]2COP(=O)(O)O[C@H]2[C@H]1O` [8-Br-cAMP]: the “THRSPA mRNA expression” value in assay [1] is listed as “not affected; also recorded: did not affect the expression”. In addition, the “ELOVL6 mRNA expression” value in [2] is recorded as “not affected; also recorded: did not affect the expression”. The “MC5R mRNA abundance (in words)” value in assay [3] is reported as “dose-dependent increase in MC5R mRNA abundance; also recorded: enhance the expression of MC5R in cultured hepatocytes in a dose-dependent manner”.
Regarding `O=S(=O)(NCCNC/C=C/c1ccc(Br)cc1)c1cccc2cnccc12` [H89], in assay [4], the “inhibition of ACTH-stimulated luciferase activity” value is on record as “significantly inhibit” and the “inhibition of α-MSH-stimulated luciferase activity” value is “significantly inhibit”.
`Cl.c1ccc(C2CCCC2NC2=NCCCCCCCCCCC2)cc1` (stereo not drawn) [MDL12330 A]: in assay [4], the “inhibition of ACTH-stimulated luciferase activity” value is recorded as “significantly inhibit” and the “inhibition of α-MSH-stimulated luciferase activity” value is “significantly inhibit”.
As to `C=C[C@@]1(C)CC(=O)[C@]2(O)[C@@]3(C)[C@@H](O)CCC(C)(C)[C@@H]3[C@H](O)[C@H](OC(C)=O)[C@@]2(C)O1` [forskolin], the “THRSPA mRNA expression” value is listed as “did not affect the expression” in assay [1] and “not affected” in [1] (listed as Forskolin). Further, the “ELOVL6 mRNA expression” value in assay [2] is “did not affect the expression”; in [2] (listed as Forskolin) it was “not affected”. Further, the “MC5R mRNA abundance (in words)” value in assay [3] is “significantly increased MC5R mRNA abundance; also recorded: enhance the expression of MC5R in cultured hepatocytes in a dose-dependent manner”.
Turning to Ac-YVMSHFRWNKF-NH2 [γ-MSH], on chicken MC5R [5], the “ability to activate / sensitivity of cMC5R (in words, ranking)” value is given as “ACTH1-39 ≈ α-MSH > β-MSH > γ-MSH” and the EC50 (usually the concentration giving half of the maximal effect) was 144 ± 15.4 nM.
Taken in the same sequence, the figures for H-DGGSYRMRHFRWHAPLKD-OH [β-MSH] were “ACTH1-39 ≈ α-MSH > β-MSH > γ-MSH” and 38.7 ± 6.51 nM.
As for NDP-MSH, the “efficacy at hMC5R with MRAP2” value in the assay on hMC5R + MRAP2 is “reduced the efficacy of hMC5R to NDP-MSH”. In the assay on chicken MC5R D204A, the “response of D204A mutant” value is on record as “completely unresponsive”. Besides, in the assay on chicken MC5R D119A, the “response of D119A mutant” value is “completely unresponsive”. Moreover, the “reactivity of F254A mutant” value in the assay on chicken MC5R F254A was “significantly reduced the reactivity”.
For the compound SHU9119, in the assay with chicken MC5R D204A, the “response of D204A mutant” value is listed as “completely unresponsive”. Further, the “response of D119A mutant” value with chicken MC5R D119A was “completely unresponsive”.
For the compound “hACTH1-39: human ACTH1-39 (SYSMEHFRWGKPVGKKRRPVKVYPNGAEDESAEAFPLEF; Corticotropin; UniProt P01189 138-176, looked up)”, the “ability of hACTH1-39 vs hACTH1-24 to activate chicken MC5R” value with chicken MC5R [6] is recorded as “no different”. Also, in the assay on human MC5R, the “ability of hACTH1-39 vs hACTH1-24 to activate human MC5R” value is on record as “no different”.
